Like-named read-outs stand apart in the source and are kept apart here.

Assay in all cases: KinomeScan kinase panel, single concentration 10 µM
Holding throughout (assay type): binding

The target in test [1] is T1, KinomeScan kinase panel (Homo sapiens, UniProt Q14164).
T1 construct: purchased DiscoveRx (KinomeScan)
T1 sequence (Q14164 1-716): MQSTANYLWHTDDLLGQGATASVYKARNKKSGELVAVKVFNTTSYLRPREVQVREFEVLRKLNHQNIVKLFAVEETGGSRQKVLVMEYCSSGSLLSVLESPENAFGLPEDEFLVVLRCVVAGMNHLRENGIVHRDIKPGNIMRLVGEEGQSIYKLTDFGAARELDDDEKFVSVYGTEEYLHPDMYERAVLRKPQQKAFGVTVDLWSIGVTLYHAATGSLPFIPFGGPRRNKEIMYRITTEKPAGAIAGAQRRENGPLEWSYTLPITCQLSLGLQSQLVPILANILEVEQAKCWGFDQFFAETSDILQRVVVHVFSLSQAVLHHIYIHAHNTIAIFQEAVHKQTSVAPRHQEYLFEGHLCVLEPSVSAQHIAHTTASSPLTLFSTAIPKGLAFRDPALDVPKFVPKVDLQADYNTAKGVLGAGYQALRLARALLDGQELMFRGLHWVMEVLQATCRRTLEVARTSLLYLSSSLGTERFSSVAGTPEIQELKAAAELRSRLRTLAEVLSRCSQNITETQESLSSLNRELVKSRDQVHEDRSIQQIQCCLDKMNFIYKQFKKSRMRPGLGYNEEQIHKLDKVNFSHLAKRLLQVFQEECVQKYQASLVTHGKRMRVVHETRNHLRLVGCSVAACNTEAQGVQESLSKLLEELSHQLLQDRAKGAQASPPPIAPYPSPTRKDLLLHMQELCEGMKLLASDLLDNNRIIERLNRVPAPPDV
To be noted: IKK-epsilon, 10 µM; read-out: score (%).

Test [2] addresses T2, KinomeScan kinase panel (Homo sapiens, UniProt Q9H2G2).
T2 construct: purchased DiscoveRx (KinomeScan)
The note with it: 10 µM, read-out: score (%).

Test [3] deals with T3, KinomeScan kinase panel (Homo sapiens, UniProt P42338).
T3 construct: purchased DiscoveRx (KinomeScan)
The note with it: PIK3CB, 10 µM; read-out: score (%).

The target in test [4] is T4, KinomeScan kinase panel (Homo sapiens, UniProt O43353).
T4 construct: purchased DiscoveRx (KinomeScan)
The note with it: read-out: score (%).

Test [5] addresses T5, KinomeScan kinase panel (Homo sapiens, UniProt P08581).
T5 construct: purchased DiscoveRx (KinomeScan)
To be noted: MET, 10 µM.

In test [6] the target is T6, KinomeScan kinase panel (Homo sapiens, UniProt Q16584).
T6 construct: purchased DiscoveRx (KinomeScan)
T6 sequence (Q16584 whole entry): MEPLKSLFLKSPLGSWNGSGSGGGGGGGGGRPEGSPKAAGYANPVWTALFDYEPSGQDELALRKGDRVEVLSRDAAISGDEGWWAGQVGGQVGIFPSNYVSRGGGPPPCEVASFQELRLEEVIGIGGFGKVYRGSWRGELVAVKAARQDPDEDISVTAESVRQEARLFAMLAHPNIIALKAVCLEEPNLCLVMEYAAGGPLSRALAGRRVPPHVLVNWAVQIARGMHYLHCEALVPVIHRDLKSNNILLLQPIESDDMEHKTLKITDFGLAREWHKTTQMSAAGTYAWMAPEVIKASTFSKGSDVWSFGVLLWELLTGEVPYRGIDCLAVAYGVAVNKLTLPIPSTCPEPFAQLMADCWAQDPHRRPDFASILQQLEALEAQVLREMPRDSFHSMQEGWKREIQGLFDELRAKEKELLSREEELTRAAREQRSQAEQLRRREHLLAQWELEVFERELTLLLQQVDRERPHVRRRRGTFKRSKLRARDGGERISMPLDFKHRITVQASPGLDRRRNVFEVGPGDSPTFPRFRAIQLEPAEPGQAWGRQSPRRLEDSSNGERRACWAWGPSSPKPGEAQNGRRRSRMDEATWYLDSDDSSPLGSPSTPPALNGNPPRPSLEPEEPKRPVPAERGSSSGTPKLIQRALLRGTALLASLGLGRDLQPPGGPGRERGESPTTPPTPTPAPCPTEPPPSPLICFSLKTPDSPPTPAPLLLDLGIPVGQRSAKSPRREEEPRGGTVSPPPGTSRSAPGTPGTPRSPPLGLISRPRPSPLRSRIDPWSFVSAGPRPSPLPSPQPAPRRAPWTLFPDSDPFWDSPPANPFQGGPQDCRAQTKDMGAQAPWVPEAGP
To be noted: MLK3, 10 µM.

Test [7] deals with T7, KinomeScan kinase panel (Homo sapiens, UniProt Q7KZI7).
T7 construct: purchased DiscoveRx (KinomeScan)
T7 sequence (Q7KZI7 whole entry): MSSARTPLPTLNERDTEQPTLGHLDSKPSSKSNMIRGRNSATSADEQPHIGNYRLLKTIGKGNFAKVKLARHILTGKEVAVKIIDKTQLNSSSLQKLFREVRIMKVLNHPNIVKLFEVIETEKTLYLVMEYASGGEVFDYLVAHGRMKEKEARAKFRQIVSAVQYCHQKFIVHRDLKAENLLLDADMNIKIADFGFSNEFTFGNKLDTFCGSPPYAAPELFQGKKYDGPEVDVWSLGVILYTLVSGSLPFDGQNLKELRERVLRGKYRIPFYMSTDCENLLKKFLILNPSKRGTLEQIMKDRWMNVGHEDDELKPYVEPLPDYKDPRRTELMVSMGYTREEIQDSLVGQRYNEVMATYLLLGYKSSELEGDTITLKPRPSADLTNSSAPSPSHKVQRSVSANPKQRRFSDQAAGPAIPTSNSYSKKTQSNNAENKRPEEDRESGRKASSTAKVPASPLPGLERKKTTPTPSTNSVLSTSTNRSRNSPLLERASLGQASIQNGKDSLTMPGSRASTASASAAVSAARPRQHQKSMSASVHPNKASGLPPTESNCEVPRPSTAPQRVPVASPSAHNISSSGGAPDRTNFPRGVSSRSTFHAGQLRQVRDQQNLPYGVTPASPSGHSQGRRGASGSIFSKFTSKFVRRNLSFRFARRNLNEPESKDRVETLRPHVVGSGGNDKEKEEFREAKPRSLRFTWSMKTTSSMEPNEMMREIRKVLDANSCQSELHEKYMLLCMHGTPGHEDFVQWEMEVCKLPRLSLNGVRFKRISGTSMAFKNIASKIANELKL
The note with it: MARK2, 10 µM; read-out: score (%).

Test [8] addresses T8, KinomeScan kinase panel (Homo sapiens, UniProt Q13177).
T8 construct: purchased DiscoveRx (KinomeScan)
The note with it: PAK2, 10 µM; read-out: score (%).

For test [9], the target named is T9, KinomeScan kinase panel (Homo sapiens, UniProt P00533, G719S).
T9 construct: purchased DiscoveRx (KinomeScan)
The note with it: EGFR(G719S), 10 µM.

Test [10] concerns the target T10, KinomeScan kinase panel (Homo sapiens, UniProt Q9UQ88).
T10 construct: purchased DiscoveRx (KinomeScan)
T10 sequence (Q9UQ88 1-783): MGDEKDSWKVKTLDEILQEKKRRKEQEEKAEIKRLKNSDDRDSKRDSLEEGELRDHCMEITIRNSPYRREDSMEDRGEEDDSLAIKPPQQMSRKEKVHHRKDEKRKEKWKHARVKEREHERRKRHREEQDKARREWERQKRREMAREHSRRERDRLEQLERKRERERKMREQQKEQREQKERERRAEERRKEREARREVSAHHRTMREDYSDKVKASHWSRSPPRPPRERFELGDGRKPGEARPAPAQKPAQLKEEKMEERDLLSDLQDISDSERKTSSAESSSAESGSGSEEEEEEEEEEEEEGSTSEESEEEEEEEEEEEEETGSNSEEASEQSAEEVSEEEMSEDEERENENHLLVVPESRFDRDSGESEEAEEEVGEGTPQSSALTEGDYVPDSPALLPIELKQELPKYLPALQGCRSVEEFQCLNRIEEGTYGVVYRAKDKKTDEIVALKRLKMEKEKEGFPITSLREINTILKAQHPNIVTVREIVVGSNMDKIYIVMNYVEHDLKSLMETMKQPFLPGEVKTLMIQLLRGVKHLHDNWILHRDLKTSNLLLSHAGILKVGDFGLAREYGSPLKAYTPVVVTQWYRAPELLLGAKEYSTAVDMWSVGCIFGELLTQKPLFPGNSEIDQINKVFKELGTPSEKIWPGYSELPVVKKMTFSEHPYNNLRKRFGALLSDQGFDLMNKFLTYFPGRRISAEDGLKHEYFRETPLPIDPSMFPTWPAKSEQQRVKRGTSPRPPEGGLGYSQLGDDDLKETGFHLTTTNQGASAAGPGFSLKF
The note with it: CDC2L2, 10 µM; read-out: score (%).

Test [11] has as its target T11, KinomeScan kinase panel (Homo sapiens, UniProt O95819).
T11 construct: purchased DiscoveRx (KinomeScan)
The note with it: MAP4K4, 10 µM; read-out: score (%).

The target in test [12] is T12, KinomeScan kinase panel (Homo sapiens, UniProt P19525).
T12 construct: purchased DiscoveRx (KinomeScan)
To be noted: 10 µM.

T8 sequence (Q13177 whole entry): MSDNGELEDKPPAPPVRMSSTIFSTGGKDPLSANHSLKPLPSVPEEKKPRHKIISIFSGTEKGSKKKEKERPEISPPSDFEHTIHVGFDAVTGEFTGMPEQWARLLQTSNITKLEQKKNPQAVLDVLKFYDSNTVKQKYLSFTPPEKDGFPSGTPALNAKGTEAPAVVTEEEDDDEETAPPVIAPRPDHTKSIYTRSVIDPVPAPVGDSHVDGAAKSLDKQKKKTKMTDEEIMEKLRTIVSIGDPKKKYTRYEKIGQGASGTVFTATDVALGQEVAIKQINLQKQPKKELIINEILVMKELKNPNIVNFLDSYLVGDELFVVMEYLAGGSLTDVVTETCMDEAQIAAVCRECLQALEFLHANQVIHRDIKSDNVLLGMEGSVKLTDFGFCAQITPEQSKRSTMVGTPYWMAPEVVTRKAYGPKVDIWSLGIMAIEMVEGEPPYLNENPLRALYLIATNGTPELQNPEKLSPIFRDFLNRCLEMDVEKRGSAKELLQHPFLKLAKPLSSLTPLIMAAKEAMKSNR
T2 sequence (Q9H2G2 whole entry): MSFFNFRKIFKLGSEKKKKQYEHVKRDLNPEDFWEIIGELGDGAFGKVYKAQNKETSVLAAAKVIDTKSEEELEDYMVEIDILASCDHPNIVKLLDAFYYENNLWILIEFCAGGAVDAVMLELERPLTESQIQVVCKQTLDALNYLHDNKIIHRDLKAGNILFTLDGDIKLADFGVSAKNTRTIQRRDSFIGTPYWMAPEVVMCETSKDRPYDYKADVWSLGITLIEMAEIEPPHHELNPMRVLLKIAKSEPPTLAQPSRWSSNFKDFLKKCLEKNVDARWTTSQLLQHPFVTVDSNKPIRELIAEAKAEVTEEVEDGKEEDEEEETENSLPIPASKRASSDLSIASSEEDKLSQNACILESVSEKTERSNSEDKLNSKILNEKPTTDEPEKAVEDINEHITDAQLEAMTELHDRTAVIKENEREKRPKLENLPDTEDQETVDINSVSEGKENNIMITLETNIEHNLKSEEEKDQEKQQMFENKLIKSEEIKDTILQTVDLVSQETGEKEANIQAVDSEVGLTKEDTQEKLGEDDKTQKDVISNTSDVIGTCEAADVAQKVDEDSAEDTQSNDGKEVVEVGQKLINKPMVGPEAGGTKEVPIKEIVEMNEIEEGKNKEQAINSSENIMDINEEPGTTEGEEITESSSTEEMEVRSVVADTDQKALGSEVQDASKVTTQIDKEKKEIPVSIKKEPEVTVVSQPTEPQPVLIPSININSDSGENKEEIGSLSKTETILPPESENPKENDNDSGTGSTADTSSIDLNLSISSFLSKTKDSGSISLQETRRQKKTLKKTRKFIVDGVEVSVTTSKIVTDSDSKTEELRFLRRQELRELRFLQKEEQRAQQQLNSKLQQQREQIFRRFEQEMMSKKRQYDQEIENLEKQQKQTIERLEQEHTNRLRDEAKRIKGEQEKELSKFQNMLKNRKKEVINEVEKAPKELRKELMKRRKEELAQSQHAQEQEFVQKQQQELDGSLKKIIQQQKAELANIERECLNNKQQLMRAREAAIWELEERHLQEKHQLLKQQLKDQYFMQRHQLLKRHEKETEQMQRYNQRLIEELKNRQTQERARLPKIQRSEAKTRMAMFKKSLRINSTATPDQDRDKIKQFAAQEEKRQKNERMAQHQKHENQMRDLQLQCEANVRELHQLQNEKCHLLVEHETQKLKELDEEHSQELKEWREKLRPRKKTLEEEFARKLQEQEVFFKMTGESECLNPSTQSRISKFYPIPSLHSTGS
T11 sequence (O95819 whole entry): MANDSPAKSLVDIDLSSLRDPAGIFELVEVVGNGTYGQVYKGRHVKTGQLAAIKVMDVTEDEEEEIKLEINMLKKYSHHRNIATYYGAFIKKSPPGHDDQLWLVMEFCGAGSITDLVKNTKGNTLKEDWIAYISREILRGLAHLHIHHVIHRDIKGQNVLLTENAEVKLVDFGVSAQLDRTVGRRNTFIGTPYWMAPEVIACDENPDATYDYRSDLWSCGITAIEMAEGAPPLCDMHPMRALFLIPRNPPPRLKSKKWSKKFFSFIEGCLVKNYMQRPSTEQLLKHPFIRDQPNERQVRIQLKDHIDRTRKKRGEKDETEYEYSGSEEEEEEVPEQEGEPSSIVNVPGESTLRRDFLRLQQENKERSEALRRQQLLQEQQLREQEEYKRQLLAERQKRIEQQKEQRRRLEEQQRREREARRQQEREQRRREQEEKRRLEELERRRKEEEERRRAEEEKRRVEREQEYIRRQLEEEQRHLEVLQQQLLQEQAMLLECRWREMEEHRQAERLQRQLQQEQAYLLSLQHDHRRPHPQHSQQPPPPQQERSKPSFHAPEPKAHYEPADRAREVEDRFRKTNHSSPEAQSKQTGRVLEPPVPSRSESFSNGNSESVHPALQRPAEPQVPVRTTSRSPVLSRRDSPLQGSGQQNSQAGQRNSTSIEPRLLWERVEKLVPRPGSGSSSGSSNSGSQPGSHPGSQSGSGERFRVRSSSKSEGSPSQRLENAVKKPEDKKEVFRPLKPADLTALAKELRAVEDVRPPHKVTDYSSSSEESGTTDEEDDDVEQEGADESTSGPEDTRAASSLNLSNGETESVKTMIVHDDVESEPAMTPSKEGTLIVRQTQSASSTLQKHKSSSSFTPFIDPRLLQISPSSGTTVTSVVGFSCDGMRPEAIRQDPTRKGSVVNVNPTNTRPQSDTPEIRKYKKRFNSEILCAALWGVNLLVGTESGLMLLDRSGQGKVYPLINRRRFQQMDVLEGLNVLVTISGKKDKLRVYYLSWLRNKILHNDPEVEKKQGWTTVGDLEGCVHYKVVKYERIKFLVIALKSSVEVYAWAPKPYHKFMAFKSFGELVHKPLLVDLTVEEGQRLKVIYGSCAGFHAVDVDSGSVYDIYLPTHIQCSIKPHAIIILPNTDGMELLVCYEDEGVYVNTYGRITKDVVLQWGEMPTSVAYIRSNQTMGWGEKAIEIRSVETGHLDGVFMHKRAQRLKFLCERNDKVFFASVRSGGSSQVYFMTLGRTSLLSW

Turning to `CCN1CCN(Cc2ccc(NC(=O)c3ccc(C)c(NC(=O)c4cncc(-c5cccs5)c4)c3)cc2C(F)(F)F)CC1` [ALW-II-41-27], the remaining binding at 10 µM in test [1] was greater than 30%; in test [2] (kinase SLK), 5%; in test [3], greater than 30%; in test [4] (RIPK2, 10 µM) it was 3.1%; in [7], greater than 30%; in [8], greater than 30%. Besides, the values for the remaining binding at 10 µM in [10] and in test [11] were 1.8% and 6.4%, respectively. The “score (%)” value in test [5] is given as “nb (Hits values higher than 30% were considered negative (no binding: nb))”; in test [6] it was “nb (Hits values higher than 30% were considered negative (no binding: nb))”; in test [9], 0.5%; in [12] (PRKR) it was “nb (Hits values higher than 30% were considered negative (no binding: nb))”.
As to `CCN1CCN(Cc2ccc(NC(=O)c3ccc(C)c(/C=C/c4cnc5[nH]ccc5c4Cl)c3)cc2C(F)(F)F)CC1` [HG-6-63-01, (E)-3-(2-(4-chloro-1H-pyrrolo[2,3-b]pyridin-5-yl)vinyl)-N-(4-((4-ethylpiperazin-1-yl)methyl)-3-(trifluoromethyl)phenyl)-4-methylbenzamide], the remaining binding at 10 µM in [1] was greater than 30%; in test [2] (SLK), 0.85%; in [3] it was greater than 30%; in test [4] (RIPK2, 10 µM) it was 1.6%; in [7] it was greater than 30%; in test [8], greater than 30%. The remaining binding at 10 µM was found to be 17% in test [10] and 0.3% in [11]. Moreover, the “score (%)” value is on record as “nb (Hits values higher than 30% were considered negative (no binding: nb))” in test [5], 0.8% in test [6], 0.1% in test [9] and “nb (Hits values higher than 30% were considered negative (no binding: nb))” in test [12] (PRKR).
In the case of `CCN1CCN(Cc2ccc(NC(=O)c3ccc(C)c(C#Cc4cccnc4)c3)cc2C(F)(F)F)CC1` [XMD15-44], the remaining binding at 10 µM in test [1] was greater than 30%; in test [2] (kinase SLK), 0.1%; in test [3] it was 100%; in test [4] (kinase RIPK2, 10 µM), 0.45%; in test [7] it was greater than 30%; in test [8], 84%. For the same compound, the values for the remaining binding at 10 µM in test [10] and in test [11] were 1.6% and 3.3%, respectively. The “score (%)” value in test [5] was “nb (Hits values higher than 30% were considered negative (no binding: nb))”; in [6] it was 17%; in test [9], 2.4%; in test [12] (kinase PRKR), 66%.

The record behind these values is paper PMC4457528, “Identification of Novel Small Molecule Inhibitors of Oncogenic RET Kinase” (PLoS ONE, 2015).
